Experimental data from ChEMBL document CHEMBL6083286, “Discovery of ERD-12310A as an Exceptionally Potent and Orally Efficacious PROTAC Degrader of Estrogen Receptor α (ERα)” (J Med Chem, 2024).
pIC50: −log10 of the molar value. Activity calls are given as the source filed them. No cut-off for these calls is given here.

Assays:
[1] = Stability in rat plasma assessed as half life; format: ADME, cell-free
[2] = Stability in human plasma assessed as half life; format: ADME, cell-free
[3] = molecular target: T1, Protein cereblon/Estrogen receptor (Homo sapiens, UniProt P03372+Q96SW2); assay: PROTAC activity at CRBN/ERalpha in human MCF7 cells assessed as reduction in ERalpha protein level measured after 12 hrs by Western blot analysis relative to control; format: cell-based
T1 sequence (P03372 whole entry, looked up): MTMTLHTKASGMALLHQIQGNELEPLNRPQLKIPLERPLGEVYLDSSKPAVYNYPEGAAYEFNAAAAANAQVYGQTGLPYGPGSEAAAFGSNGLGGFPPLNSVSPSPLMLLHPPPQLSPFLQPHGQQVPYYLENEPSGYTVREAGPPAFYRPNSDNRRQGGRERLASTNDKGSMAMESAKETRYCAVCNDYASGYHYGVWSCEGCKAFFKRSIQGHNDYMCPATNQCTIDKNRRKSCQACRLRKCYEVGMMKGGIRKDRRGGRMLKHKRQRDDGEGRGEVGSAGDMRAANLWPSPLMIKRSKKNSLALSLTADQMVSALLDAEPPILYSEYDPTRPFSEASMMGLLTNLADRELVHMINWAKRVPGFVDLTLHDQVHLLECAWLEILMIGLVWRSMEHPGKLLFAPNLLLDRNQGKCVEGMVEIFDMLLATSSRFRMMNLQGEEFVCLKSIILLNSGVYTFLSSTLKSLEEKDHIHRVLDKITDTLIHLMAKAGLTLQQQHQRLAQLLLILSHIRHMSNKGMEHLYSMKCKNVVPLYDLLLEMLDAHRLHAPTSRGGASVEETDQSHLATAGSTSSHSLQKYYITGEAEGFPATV
T1 sequence (Q96SW2 whole entry, looked up): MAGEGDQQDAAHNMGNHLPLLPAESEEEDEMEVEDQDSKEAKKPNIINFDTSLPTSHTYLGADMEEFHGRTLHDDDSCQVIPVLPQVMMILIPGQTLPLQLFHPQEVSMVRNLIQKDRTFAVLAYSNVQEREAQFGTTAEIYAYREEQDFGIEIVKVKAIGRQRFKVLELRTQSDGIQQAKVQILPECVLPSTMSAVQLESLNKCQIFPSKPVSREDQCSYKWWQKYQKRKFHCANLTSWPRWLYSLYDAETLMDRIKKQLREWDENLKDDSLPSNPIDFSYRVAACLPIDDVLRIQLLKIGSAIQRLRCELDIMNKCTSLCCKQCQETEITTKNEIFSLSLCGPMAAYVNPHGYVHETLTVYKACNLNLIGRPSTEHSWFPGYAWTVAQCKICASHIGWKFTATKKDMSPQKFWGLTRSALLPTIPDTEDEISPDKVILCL

[4] = Half life in mouse at 3 mg/kg, po or 1 mg/kg, iv measured upto 24 hrs by LC-MS/MS analysis; format: ADME, organism-based; conditions: in vivo
[5] = Cmax in dog at 3 mg/kg, po or 1 mg/kg, iv measured upto 24 hrs by LC-MS/MS analysis; format: ADME, organism-based, Canis lupus familiaris; conditions: in vivo
[6] = Oral bioavailability in rat at 3 mg/kg measured upto 24 hrs by LC-MS/MS analysis; format: ADME, organism-based; conditions: in vivo
[7] = Oral bioavailability in dog at 3 mg/kg measured upto 24 hrs by LC-MS/MS analysis; format: ADME, organism-based, Canis lupus familiaris; conditions: in vivo
Cytochrome P450 2B6 = molecular target: T2, Cytochrome P450 2B6 (Homo sapiens, UniProt P20813); assay: Inhibition of CYP2B6 in human liver microsomes preincubated for 5 mins followed by NADPH addition and measured after 10 mins by LC-MS/MS analysis; format: ADME, Microsome
T2 sequence (P20813 whole entry): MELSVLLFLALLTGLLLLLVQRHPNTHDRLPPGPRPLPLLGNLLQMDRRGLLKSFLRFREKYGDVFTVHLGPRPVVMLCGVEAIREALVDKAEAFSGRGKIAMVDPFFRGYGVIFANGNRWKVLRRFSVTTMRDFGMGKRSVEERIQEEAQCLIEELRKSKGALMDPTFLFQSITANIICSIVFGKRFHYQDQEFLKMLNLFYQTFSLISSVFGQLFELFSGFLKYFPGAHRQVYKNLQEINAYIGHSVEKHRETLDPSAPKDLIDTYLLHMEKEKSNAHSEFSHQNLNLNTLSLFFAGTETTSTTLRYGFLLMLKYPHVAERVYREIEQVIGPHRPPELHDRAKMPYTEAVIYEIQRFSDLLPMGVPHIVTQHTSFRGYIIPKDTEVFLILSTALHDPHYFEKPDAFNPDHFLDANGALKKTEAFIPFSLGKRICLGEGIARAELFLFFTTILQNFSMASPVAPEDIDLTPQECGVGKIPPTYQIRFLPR

Cytochrome P450 2C8 = molecular target: T3, Cytochrome P450 2C8 (Homo sapiens, UniProt P10632); assay: Inhibition of CYP2C8 in human liver microsomes incubated for 5 mins in presence of NADPH by LC-MS/MS analysis; format: ADME, Microsome
T3 sequence (P10632 whole entry): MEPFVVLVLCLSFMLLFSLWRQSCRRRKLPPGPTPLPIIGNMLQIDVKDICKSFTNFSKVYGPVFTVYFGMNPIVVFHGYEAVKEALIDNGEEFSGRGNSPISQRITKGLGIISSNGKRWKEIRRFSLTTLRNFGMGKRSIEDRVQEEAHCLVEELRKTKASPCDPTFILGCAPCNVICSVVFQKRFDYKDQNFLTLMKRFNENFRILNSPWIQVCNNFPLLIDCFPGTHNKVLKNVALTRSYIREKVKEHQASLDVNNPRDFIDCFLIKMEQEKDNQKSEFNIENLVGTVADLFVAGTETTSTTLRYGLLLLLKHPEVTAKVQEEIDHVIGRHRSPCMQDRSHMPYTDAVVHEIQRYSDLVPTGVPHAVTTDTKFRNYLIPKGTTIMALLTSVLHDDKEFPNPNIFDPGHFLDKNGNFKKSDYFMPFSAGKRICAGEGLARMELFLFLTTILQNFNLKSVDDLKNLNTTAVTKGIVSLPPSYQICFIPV

Cytochrome P450 3A4 = Cytochrome P450 3A4 (Homo sapiens, UniProt P08684); assay: Inhibition of CYP3A4 in human liver microsomes using midazolam as substrate preincubated for 5 mins followed by NADPH addition and measured after 10 mins by LC-MS/MS analysis; format: ADME, Microsome
Chain of Cytochrome P450 3A4 (P08684 whole entry): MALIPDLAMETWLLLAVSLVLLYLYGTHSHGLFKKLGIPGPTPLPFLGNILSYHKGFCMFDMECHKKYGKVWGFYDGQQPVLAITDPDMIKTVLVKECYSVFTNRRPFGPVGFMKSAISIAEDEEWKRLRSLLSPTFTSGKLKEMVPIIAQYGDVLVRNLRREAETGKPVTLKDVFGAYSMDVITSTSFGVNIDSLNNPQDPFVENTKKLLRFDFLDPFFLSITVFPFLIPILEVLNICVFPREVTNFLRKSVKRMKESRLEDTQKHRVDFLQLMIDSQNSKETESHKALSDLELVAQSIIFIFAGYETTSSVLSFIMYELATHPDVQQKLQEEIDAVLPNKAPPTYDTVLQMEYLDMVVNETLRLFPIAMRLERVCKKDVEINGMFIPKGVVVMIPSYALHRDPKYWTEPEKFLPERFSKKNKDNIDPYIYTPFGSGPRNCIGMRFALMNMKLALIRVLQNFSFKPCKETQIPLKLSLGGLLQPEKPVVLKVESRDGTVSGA

[8] = molecular target: Voltage-gated inwardly rectifying potassium channel KCNH2 (Homo sapiens, UniProt Q12809); assay: Inhibition of hERG in HEK293 cells at 10 uM by whole-cell patch clamp assay relative to control; format: toxicity, cell-based; conditions: hek293, 10 µM
Chain of Voltage-gated inwardly rectifying potassium channel KCNH2 (Q12809 whole entry): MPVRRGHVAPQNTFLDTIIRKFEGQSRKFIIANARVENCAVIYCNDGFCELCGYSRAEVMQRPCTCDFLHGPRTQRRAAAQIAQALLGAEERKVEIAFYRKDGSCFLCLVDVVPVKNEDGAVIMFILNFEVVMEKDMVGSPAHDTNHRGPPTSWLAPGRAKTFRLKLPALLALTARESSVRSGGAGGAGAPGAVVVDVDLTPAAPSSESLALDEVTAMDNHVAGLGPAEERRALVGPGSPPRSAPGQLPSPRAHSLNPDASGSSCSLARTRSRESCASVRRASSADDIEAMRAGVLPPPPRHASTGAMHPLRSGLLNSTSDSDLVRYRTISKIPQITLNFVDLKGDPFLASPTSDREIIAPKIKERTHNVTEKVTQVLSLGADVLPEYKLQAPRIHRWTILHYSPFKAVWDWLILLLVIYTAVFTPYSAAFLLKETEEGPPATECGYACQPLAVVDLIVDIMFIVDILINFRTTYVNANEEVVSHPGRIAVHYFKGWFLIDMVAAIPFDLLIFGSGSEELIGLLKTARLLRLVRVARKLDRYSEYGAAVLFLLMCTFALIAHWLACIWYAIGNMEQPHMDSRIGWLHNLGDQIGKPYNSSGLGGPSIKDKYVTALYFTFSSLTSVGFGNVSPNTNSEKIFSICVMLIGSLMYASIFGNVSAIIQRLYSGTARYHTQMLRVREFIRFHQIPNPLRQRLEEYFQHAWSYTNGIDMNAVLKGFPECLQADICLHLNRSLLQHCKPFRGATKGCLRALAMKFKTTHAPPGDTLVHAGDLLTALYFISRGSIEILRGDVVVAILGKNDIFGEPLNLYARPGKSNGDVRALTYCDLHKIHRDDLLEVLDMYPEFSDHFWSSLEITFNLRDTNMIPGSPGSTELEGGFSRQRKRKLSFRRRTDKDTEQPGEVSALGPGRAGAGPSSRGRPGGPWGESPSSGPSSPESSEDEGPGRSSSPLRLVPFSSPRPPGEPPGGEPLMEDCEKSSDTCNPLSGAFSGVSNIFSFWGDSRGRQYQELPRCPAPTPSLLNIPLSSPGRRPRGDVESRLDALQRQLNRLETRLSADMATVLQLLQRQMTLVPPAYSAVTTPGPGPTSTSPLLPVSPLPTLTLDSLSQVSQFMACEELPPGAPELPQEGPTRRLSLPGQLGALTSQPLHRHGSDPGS

[9] = Plasma protein binding in human; format: ADME, cell-free
T47D = assay: PROTAC activity at CRBN/ ERalpha D538G mutant in human T47D cells assessed as reduction in ERalpha protein level at 10 to 100 nM measured at 7 hrs by Western blot analysis; format: cell-based; design: scale not given: the % may be the effect or the level left; conditions: dose 10-100 nM
[10] = molecular target: T1, Protein cereblon/Estrogen receptor; assay: PROTAC activity at CRBN/ERalpha in human MCF7 cells assessed as reduction in ERalpha protein level at 5 nM measured for 4 hrs in presence of MLN-4924 by Western blot analysis; format: cell-based
[11] = molecular target: T1, Protein cereblon/Estrogen receptor; assay: PROTAC activity at CRBN/ERalpha in human MCF7 cells assessed as reduction ER level measured for 5 hrs by Western blot analysis; format: cell-based; conditions: dose 0.5-500 nM
MCF7 [12] = assay: Antiproliferative activity against human MCF7 cells assessed as cell growth inhibition incubated for 4 days by crystal violet staining based assay; format: functional; conditions: time 4.0 day
[13] = molecular target: T1, Protein cereblon/Estrogen receptor; assay: In-vivo PROTAC activity at CRBN/ERalpha in SCID mouse xenografted with human MCF7 cells assessed as reduction in ERalpha level in tumor at 10 mg/kg, po administered daily for 3 days and measured after 6 hrs by Western blot analysis; format: functional, organism-based; design: scale not given: the % may be the effect or the level left; conditions: time 78.0 hrs
[14] = Drug concentration in SCID mouse plasma at 10 mg/kg, po administered daily for 3 days and measured after 6 hrs by LC-MS/MS analysis; format: ADME, organism-based
[15] = Drug concentration in SCID mouse tumor at 30 mg/kg, po administered daily for 3 days and measured after 24 hrs by LC-MS/MS analysis; format: ADME, organism-based, Neoplasm; conditions: read-out: Ct
[16] = system: Protein cereblon/Estrogen receptor (Homo sapiens), P03372+Q96SW2 [Y537S]; assay: In vivo PROTAC activity at CRBN/ESR1 Y537S mutant in SCID mouse xenografted with human MCF7 cells assessed as reduction in ESR1 Y537S level in tumor at 10 mg/kg, po measured after 24 hrs by Western blot analysis; format: functional, organism-based; design: scale not given: the % may be the effect or the level left
[17] = system: Protein cereblon/Estrogen receptor (Homo sapiens), P03372+Q96SW2 [Y537S]; assay: In vivo PROTAC activity at CRBN/ESR1 Y537S mutant in SCID mouse xenografted with human MCF7 cells assessed as reduction in ESR1 Y537S level in tumor at 10 to 30 mg/kg, po administered once daily for 3 days measured after 24 hrs by Western blot analysis; format: functional, organism-based; design: scale not given: the % may be the effect or the level left; conditions: dose 10-30 mg/kg, time […]
MCF7 [18] = assay: Antitumor activity against human MCF7 cells xenografted in SCID mouse assessed as tumor growth inhibition at 3 mg/kg, po administered for 41 to 76 days; format: functional; conditions: time 41-76 day, read-out: TGI
MCF7 [19] = assay: Antitumor activity against human MCF7 cells xenografted in SCID mouse assessed as tumor growth inhibition at 30 mg/kg, po administered for 5 weeks and measured on day 81; format: functional; conditions: MCF7, 1944 h, time 81 day, read-out: TGI
MCF7 [20] = assay: Antitumor activity against human MCF7 cells expressing ESR1 Y537S mutant xenografted in SCID mouse assessed as tumor growth inhibition at 30 mg/kg, po administered 5 days a week for 7 weeks; format: functional; conditions: MCF7, 1176 h, read-out: TGI
[21] = Drug concentration in SCID mouse plasma at 10 mg/kg, po administered once daily for 3 days measured after 24 hrs by LC-MS/MS analysis; format: ADME, organism-based

Compound: O=C1CC[C@H](N2Cc3c(ccc4c3OCC43CCN(C[C@@H]4CCC5(CCN(c6ccc([C@@H]7c8ccc(O)cc8CC[C@@H]7c7ccccc7)cc6)CC5)OC4)CC3)C2=O)C(=O)N1
- t1/2 [1]: > 4 h
- t1/2 [2]: > 4 h
- Emax [3]: 103%
- t1/2 [4]: 13.3 h
- Cmax [5]: 469.4 ng/mL
- F [6]: 10%
- F [7]: 49%
- pIC50 (Cytochrome P450 2B6): 5.60
- pIC50 (Cytochrome P450 2C8): < 5.00
- pIC50 (Cytochrome P450 3A4): < 5.00
- inhibition (INH) [8]: 43.7%
- PPB [9]: 98.9%
- Activity (T47D): > 80%
- Activity [10]: inactive
- Activity [11]: Dose-dependent-effect
- Activity (MCF7 [12]): Active
- Activity [13]: 66%
- concentration at 78 h [14]: 380 ng/mL
- concentration at 96 h [15]: 1090 ng/mL
- Activity [16]: 71%
- Activity [17]: 74%
- inhibition in vivo at 3 mg/kg (MCF7 [18]): 93%
- inhibition in vivo at 30 mg/kg (MCF7 [19]): 110%
- inhibition in vivo at 30 mg/kg (MCF7 [20]): 100%
- concentration at 96 h [21]: 18 ng/mL
